From patent publication US11944111B2, “Stabilizing sorbic acid in beverage syrup” (PepsiCo, Inc., priority 2015, dated 2024)
Where two headings read alike, the source gives them in different places.

Experiments:
[1] = cited from earlier work
[2] = UV-vis 263 nm, saturated solution
Source text: According to the Lambert-Beer Law, the concentration of sorbic acid is proportional to absorption intensity (Abs(Intesity)=K [Sorbic Acid]).

[3] = aqueous solution, pH between 2.5 and 4, about 20 C

Row | SMILES | solubility of sorbic acid in high acid syrup ([1]; 60% brix syrup) [%] | sorbate concentration at which sorbic acid precipitation begins [1, 3] | sorbate concentration at which the tendency to precipitate is clear [1, 3] [ppm] | Stability (crystals) (aged at 40 F. 0 day) | Stability (crystals) (aged at 40 F. 7 days) | Abs (pH 2.5) ([2]; aged at 40 F. 0 day) | Abs (pH 2.5) ([2]; aged at 40 F. 7 days) | Abs (pH 3.0) ([2]; aged at 40 F. 7 days)
1 | C/C=C/C=C/C(=O)O [sorbic acid] | 0.08 | about 500 ppm | 1300 | – | – | – | – | –
2 | C/C=C/C=C/C(=O)[O-].[K+] [Potassium Sorbate] | – | – | – | no crystals | lot of crystals | 1.644 | 1.357 | 1.24
